Measurements reported in patent US3932512A, “Antiviral 1,2,3,4-tetrahydro-1,-alkano naphthalenamine derivatives” (priority 1972, dated 1976).
Where two headings read alike, the source gives them in different places.

Tests used:
[1] = tested on: influenza A2 virus Aichi/2/68; experiment: preventive control of influenza A2 in mice, compound I at different levels; assay type: in vivo, influenza A2 virus Aichi/2/68 (in Charles River white mice)
Description: In the following experiment, compound I was tested at different levels for preventive control of influenza as follows:
Charles River white mice, starting weight: 10-12 g;
12 mice per group (24 mice as control).
Virus: Mice were inoculated intranasally with influenza
A2 virus Aichi/2/68, with a titer of 2,88 LD50,
Mice were divided into 5 groups and received
day intraperitoneally, once a day for 16 days
beginning one day prior to infection with the
virus. Mice were weighed each day before inocula-
tions and doses adjusted according to the actual
weight of each animal. The active compound was
suspended in phosphate buffered saline.

mice = experiment: toxicity of in vitro active anti-myxovirus compounds in mice
[2] = as above; conditions: mouse, in vivo
Influenza (swine) = experiment: cells; assay type: cell-based
Influenza A2 /Aichi/3/68 = experiment: in vitro anti-myxovirus activity, influenza A2 /Aichi/3/68, G-2 cells (% inhibition of hemadsorption); assay type: cell-based, Influenza A2 /Aichi/3/68 (human); conditions: for inhibition at 40 µg/mL: 40 μg/ml; for inhibition at 30 µg/mL / inhibition at 50 µg/mL / inhibition at 60 µg/mL / inhibition at 70 µg/mL / inhibition at 80 µg/mL / inhibition at 90 µg/mL / inhibition at 100 µg/mL: Homo sapiens; for inhibition at 30 µg/mL: 30 μg/ml; for inhibition at 50 µg/mL: 50 μg/ml; for inhibition at 60 µg/mL: 60 μg/ml; for inhibition at 70 µg/mL: 70 μg/ml; for inhibition at 80 µg/mL: 80 μg/ml; for inhibition at 90 µg/mL: 90 μg/ml; for inhibition at 100 µg/mL: 100 μg/ml, read-out: % Inhibition
[3] = cytotoxicity in G-2 cells; assay type: cell-based; conditions: human
Description: In preparing the compounds for testing, they were handled aseptically throughout. The compounds were dissolved in a minimum amount of a suitable solvent and the final dilutions were made up to the required volume in a complete culture medium used in assay and in concentration not exceeding the predetermined maximum non-toxic levels.
The cell culture used in all primary in vitro anti-myxovirus assays was an established cell line of the human conjunctiva (G-2 cells). The cytotoxic studies of each of the compounds were performed prior to testing for antiviral activity to determine level of response of the cells to the potentially toxic action of the compounds.

influenza viruses = experiment: relative antiviral activity in vitro; assay type: cell-based; conditions: words
[4] = 100 mg/kg, day 10 postinfection
[5] = 100 mg/kg, day 11 postinfection
[6] = 100 mg/kg, day 12 postinfection
[7] = 100 mg/kg, day 13 postinfection
[8] = 100 mg/kg, day 14 postinfection

With `N[C@H]1C[C@@H]2C[C@H]1c1ccccc12` (relative stereo) [Compound I] the Survivors % ([1]; 40 mg/kg) was 8.3%, the “Survivors S/T” value ([1]; 40 mg/kg) was 1/12 and the Cumulative mortality % ([1]; 40 mg/kg, day 8 postinfection) was 8.3%. The “Cumulative mortality N” value ([1]; 40 mg/kg, day 8 postinfection) was 1, the Cumulative mortality % ([1]; 40 mg/kg, day 9 postinfection) was 41.7% and the “Cumulative mortality N” value ([1]; 40 mg/kg, day 9 postinfection) was 5. The Cumulative mortality % ([1]; 40 mg/kg, day 10 postinfection) was 58.3%, the “Cumulative mortality N” value ([1]; 40 mg/kg, day 10 postinfection) was 7 and the Cumulative mortality % ([1]; 40 mg/kg, day 11 postinfection) was 75.0%. For the same compound, the “Cumulative mortality N” value ([1]; 40 mg/kg, day 11 postinfection) was 9, the Cumulative mortality % ([1]; 40 mg/kg, day 12 postinfection) was 83.3% and the “Cumulative mortality N” value ([1]; 40 mg/kg, day 12 postinfection) was 10. For the same compound, the Cumulative mortality % ([1]; 40 mg/kg, day 13 postinfection) was 91.6%, the “Cumulative mortality N” value ([1]; 40 mg/kg, day 13 postinfection) was 11 and the Cumulative mortality % ([1]; 40 mg/kg, day 14 postinfection) was 91.6%. The “Cumulative mortality N” value ([1]; 40 mg/kg, day 14 postinfection) was 11, the Survivors % ([1]; 55 mg/kg) was 8.3% and the “Survivors S/T” value ([1]; 55 mg/kg) was 1/12. The Cumulative mortality % ([1]; 55 mg/kg, day 8 postinfection) was 8.3%, the “Cumulative mortality N” value ([1]; 55 mg/kg, day 8 postinfection) was 1 and the Cumulative mortality % ([1]; 55 mg/kg, day 9 postinfection) was 16.7%. The “Cumulative mortality N” value ([1]; 55 mg/kg, day 9 postinfection) was 2, the Cumulative mortality % ([1]; 55 mg/kg, day 10 postinfection) was 41.7% and the “Cumulative mortality N” value ([1]; 55 mg/kg, day 10 postinfection) was 5. The Cumulative mortality % ([1]; 55 mg/kg, day 11 postinfection) was 58.3%, the “Cumulative mortality N” value ([1]; 55 mg/kg, day 11 postinfection) was 7 and the Cumulative mortality % ([1]; 55 mg/kg, day 12 postinfection) was 75.0%. For the same compound, the “Cumulative mortality N” value ([1]; 55 mg/kg, day 12 postinfection) was 9, the Cumulative mortality % ([1]; 55 mg/kg, day 13 postinfection) was 91.6% and the “Cumulative mortality N” value ([1]; 55 mg/kg, day 13 postinfection) was 11. The Cumulative mortality % ([1]; 55 mg/kg, day 14 postinfection) was 91.6%, the “Cumulative mortality N” value ([1]; 55 mg/kg, day 14 postinfection) was 11 and the Survivors % ([1]; 70 mg/kg) was 50.0%. The “Survivors S/T” value ([1]; 70 mg/kg) was 6/12, the Cumulative mortality % ([1]; 70 mg/kg, day 8 postinfection) was 8.3% and the “Cumulative mortality N” value ([1]; 70 mg/kg, day 8 postinfection) was 1. For the same compound, the Cumulative mortality % ([1]; 70 mg/kg, day 9 postinfection) was 8.3%, the “Cumulative mortality N” value ([1]; 70 mg/kg, day 9 postinfection) was 1 and the Cumulative mortality % ([1]; 70 mg/kg, day 10 postinfection) was 41.7%. The “Cumulative mortality N” value ([1]; 70 mg/kg, day 10 postinfection) was 5, the Cumulative mortality % ([1]; 70 mg/kg, day 11 postinfection) was 50.0% and the “Cumulative mortality N” value ([1]; 70 mg/kg, day 11 postinfection) was 6. The Cumulative mortality % ([1]; 70 mg/kg, day 12 postinfection) was 50.0%, the “Cumulative mortality N” value ([1]; 70 mg/kg, day 12 postinfection) was 6 and the Cumulative mortality % ([1]; 70 mg/kg, day 13 postinfection) was 50.0%. The “Cumulative mortality N” value ([1]; 70 mg/kg, day 13 postinfection) was 6, the Cumulative mortality % ([1]; 70 mg/kg, day 14 postinfection) was 50.0% and the “Cumulative mortality N” value ([1]; 70 mg/kg, day 14 postinfection) was 6. The Survivors % ([1]; 85 mg/kg) was 50.0%, the “Survivors S/T” value ([1]; 85 mg/kg) was 6/12 and the Cumulative mortality % ([1]; 85 mg/kg, day 8 postinfection) was 0%. For the same compound, the “Cumulative mortality N” value ([1]; 85 mg/kg, day 8 postinfection) was 0, the Cumulative mortality % ([1]; 85 mg/kg, day 9 postinfection) was 8.3% and the “Cumulative mortality N” value ([1]; 85 mg/kg, day 9 postinfection) was 1. For the same compound, the Cumulative mortality % ([1]; 85 mg/kg, day 10 postinfection) was 25.0%, the “Cumulative mortality N” value ([1]; 85 mg/kg, day 10 postinfection) was 3 and the Cumulative mortality % ([1]; 85 mg/kg, day 11 postinfection) was 33.3%. The “Cumulative mortality N” value ([1]; 85 mg/kg, day 11 postinfection) was 4, the Cumulative mortality % ([1]; 85 mg/kg, day 12 postinfection) was 50.0% and the “Cumulative mortality N” value ([1]; 85 mg/kg, day 12 postinfection) was 6. The Cumulative mortality % ([1]; 85 mg/kg, day 13 postinfection) was 50.0%, the “Cumulative mortality N” value ([1]; 85 mg/kg, day 13 postinfection) was 6 and the Cumulative mortality % ([1]; 85 mg/kg, day 14 postinfection) was 50.0%. The “Cumulative mortality N” value ([1]; 85 mg/kg, day 14 postinfection) was 6, the Survivors % ([1]; 100 mg/kg) was 66.4% and the “Survivors S/T” value ([1]; 100 mg/kg) was 8/12. For the same compound, the Cumulative mortality % ([1]; 100 mg/kg, day 8 postinfection) was 0%, the “Cumulative mortality N” value ([1]; 100 mg/kg, day 8 postinfection) was 0 and the Cumulative mortality % ([1]; 100 mg/kg, day 9 postinfection) was 0%. For the same compound, the “Cumulative mortality N” value ([1]; 100 mg/kg, day 9 postinfection) was 0, the Cumulative mortality % [1, 4] was 16.7% and the “Cumulative mortality N” value [1, 4] was 2. For the same compound, the Cumulative mortality % [1, 5] was 25.0%, the “Cumulative mortality N” value [1, 5] was 3 and the Cumulative mortality % [1, 6] was 33.3%. For the same compound, the “Cumulative mortality N” value [1, 6] was 4, the Cumulative mortality % [1, 7] was 33.3% and the “Cumulative mortality N” value [1, 7] was 4. The Cumulative mortality % [1, 8] was 33.3%, the “Cumulative mortality N” value [1, 8] was 4 and the “Maximal non-toxic dose LD0, acute” value (mice; I/P) was 125 mg/kg. For the same compound, the “Maximal non-toxic dose LD0, subacute” value (mice; I/P) was 100 mg/kg, the “Maximal non-toxic dose LD0, acute” value (mice; P/O) was 250 mg/kg and the “Maximal non-toxic dose LD0, subacute” value (mice; P/O) was 225 mg/kg. The MTD [2] was ≤ 100 mg/kg, the LD50 ([2]; ip, 50% toxic dose LD50, acute, I/P, acute) was 100 mg/kg and the LD50 ([2]; ip, 50% toxic dose LD50, subacute, I/P, subacute) was 100 mg/kg. It also gave an LD50 ([2]; po, 50% toxic dose LD50, acute, P/O, acute) of 275 mg/kg, an LD50 ([2]; po, 50% toxic dose LD50, subacute, P/O, subacute) of 250 to 275 mg/kg and an inhibition at 40 µg/mL (Influenza (swine); 40 μg/ml) of 0%. The “% Inhibition” value (Influenza (swine); 50 μg/ml, listed as 1,2,3,4-TETRAHYDRO-1,4-[…]-ENDO-2-AMINE.HCl) was 7%, the inhibition at 80 µg/mL (Influenza (swine); 80 μg/ml) was 90% and the inhibition at 90 µg/mL (Influenza (swine); 90 μg/ml) was 97%. For the same compound, the inhibition at 100 µg/mL (Influenza (swine); 100 μg/ml) was 100%, the inhibition at 40 µg/mL (Influenza A2 /Aichi/3/68; 17.8 TCID50) was 13% and the inhibition at 40 µg/mL (Influenza A2 /Aichi/3/68; 178 TCID50) was 0%. It also gave an inhibition at 30 µg/mL (Influenza A2 /Aichi/3/68; 17.8 TCID50) of 0%, an inhibition at 30 µg/mL (Influenza A2 /Aichi/3/68; 178 TCID50) of 0% and an inhibition at 50 µg/mL (Influenza A2 /Aichi/3/68; 17.8 TCID50) of 30%. For the same compound, the inhibition at 50 µg/mL (Influenza A2 /Aichi/3/68; 178 TCID50) was 10%, the inhibition at 60 µg/mL (Influenza A2 /Aichi/3/68; 17.8 TCID50) was 87% and the inhibition at 60 µg/mL (Influenza A2 /Aichi/3/68; 178 TCID50) was 37%. The inhibition at 70 µg/mL (Influenza A2 /Aichi/3/68; 17.8 TCID50) was 90%, the inhibition at 70 µg/mL (Influenza A2 /Aichi/3/68; 178 TCID50) was 53% and the inhibition at 80 µg/mL (Influenza A2 /Aichi/3/68; 17.8 TCID50) was 97%. The inhibition at 80 µg/mL (Influenza A2 /Aichi/3/68; 178 TCID50) was 77%, the inhibition at 90 µg/mL (Influenza A2 /Aichi/3/68; 17.8 TCID50) was 97% and the inhibition at 90 µg/mL (Influenza A2 /Aichi/3/68; 178 TCID50) was 80%. The inhibition at 100 µg/mL (Influenza A2 /Aichi/3/68; 17.8 TCID50) was 97%, the inhibition at 100 µg/mL (Influenza A2 /Aichi/3/68; 178 TCID50) was 90% and the CC50 ([3]; 50% inhibition of cell growth, read-out: Cytotoxicity CTD50) was > 100 µg/mL. For the same compound, the MNTC ([3]; maximal non-toxic concentration, read-out: Cytotoxicity CTD0) was > 100 µg/mL.

With `C[C@@H]1[C@H](N)[C@H]2C[C@@H]1c1ccccc12` (relative stereo) [IV, 1,2,3,4-tetrahydro-1,4-methanonaphthalen-endo-3-methyl-endo-2-amine] the relative antiviral activity (influenza viruses) was “relatively low antiviral activity”.
